Source: patent publication US8343912B2, “Antibiotic compositions for the treatment of gram negative infections” (priority 2008, dated 2013)
Marks after values point to notes of the source that are not given here. Numbered stars: 1 amine (or outer) side, 2 acyl side, 3 side chain; on linkers, the order of the positions; unused ones are H or OH. Bridge positions count the residues as written; N and C are the ends. Square brackets hold non-standard residues; d marks the D form. Peptide text beside a SMILES is read from it. * marks the point of attachment. Octanoyl(6-Me) = CCC(C)CCCCC(=O)*; NH(2-ClPh) = Clc1ccccc1N*; Dab = NCC[CH](N)C(=O)O; CO = O=C([*:1])[*:2]

How the values were obtained:
K. pneumonia = test: MIC90, broth microdilution, panel of Gram negative clinical isolates; format: cell-based, Klebsiella pneumoniae; settings: 81 strains; some strains multi-drug resistant
Description: To evaluate the potency and spectrum of compounds of Formula (I), (i.e., Compounds designated 5 and 6), a study was conducted that put together a panel of 455 Gram negative strains, which included multi-drug resistant clinical isolates selected from various surveillance programs. Table 3A lists the strains that were included in the study and the activity of Compound 5, Compound 6, and colistin (polymyxin E, abbreviated PME). Strains with acquired resistance to colistin and/or carbapenems and/or broad spectrum cephalosporins were pre-selected and included in all organism groups evaluated.
(§1) MIC testing was performed according to Clinical and Laboratory Standards Institute (CLSI) M7-A7 (2006) broth microdilution methods. Unless otherwise indicated, MIC values are provided in units of micrograms per milliliter.
(§2) One day prior to testing, individual colonies were isolated by streaking onto rich, non-selective Tryptic Soy agar with 5% lysed sheeps blood (TSAB) with incubation at 35-37° C. for 18-24 hours.
(§3) Cultures were prepared by touching 3-5 colonies into 3 mL of Cation adjusted Mueller Hinton Broth (caMHB) in a 14 mL tube (CaMHB was prepared and sterilized according to manufacturer's specifications). Cultures were grown at 37° C. 200 rpm for approximately four hours prior to density adjustment for addition to the MIC assay.
(§4) OD600 of growing cultures was measured and adjusted to approximately 10^5 colony forming units per mL (CFU/mL) in caMHB for MIC inoculation (approximately OD600 0.001).
(§5) Diluted cultures were used to inoculate 50 μL per well in broth microdilution assays (final volume 100 μl per well; compounds were prepared in two-fold dilutions).
(§6) Plates were incubated 16-20 hrs at 37° C., with shaking at 200 rpm.
(§7) OD600 was determined for all wells. Growth was defined as OD600>0.1. MICs were defined as the lowest concentration producing no visible turbidity (OD600<0.1).

[1] = test system: Acinetobacter baumannii 1570; test: MIC, broth microdilution; format: cell-based; settings: for MIC against A. baumannii #1570: Table 8, range of repeated tests
Description: as §1, §2, §3, §4, §5, §6, §7
A. baumannii #1570 were grown in cation adjusted Mueller Hinton Broth (caMHB) (catalog #B12322; Fisher Scientific, Pittsburgh, Pa.) at 37° C. MIC testing was performed according to Clinical and Laboratory Standards Institute [CLSI, formerly National Committee for Clinical Laboratory Standards (NCCLS), Wayne, Pa.] guidelines for broth microdilution.
MIC testing was performed according to CLSI (formerly NCCLS) guidelines for broth microdilution.

P. aeruginosa #44 = test: Lung infection in neutropenic mice; format: in vivo; settings: for Log10 CFU/mL lung homogenate ± SD: lungs at 24 h; for ED−3log10 (dose for 3 log10 reduction in bacterial count vs water): lung infection, sc, Compound 5 value corrected for lot potency 711 μg/mg
Description: Infection was induced in normal immunocompetent or neutropenic mice by intranasal inoculation of P. aeruginosa #44. […] At 24 hours post-infection, mice were humanely euthanized and the lungs of the mice were removed, homogenized, serially diluted, and plated on agar, to quantitate the bacterial burden.
All of the test compounds were dissolved in sterile water for administration by subcutaneous (sc) injection. […] A series of dilutions of test compounds were prepared in water.
In the lung infection model using P. aeruginosa #44 as the infecting organism, CD-1 mice were made neutropenic by intraperitoneal (ip) administration with 150 mg/kg cyclophosphamide on day-4, followed by a second ip dose of 100 mg/kg cyclophosphamide on day-1. On day 0 a diluted, exponential-phase growing culture of P. aeruginosa #44 corresponding to 1×10^5 or 2.5×10^8 CFU respectively, in 0.1 mL of sterile saline, was inoculated by the intranasal route in mice. Just prior to inoculation, mice were anaesthetized with 60 mg/kg pentobarbital, ip. The actual concentration of bacteria in the inoculum was confirmed by determination of viable counts by dilution plating on tryptic soy agar plates. The number of CFU of bacteria was determined after an incubation of 16 h at 37° C.
Groups of five mice were used for each dose of the test compounds and the vehicle (water) control group. Each group received sc injections of test compounds or vehicle at 1 hour post-infection, and then at 6 hours post-infection for a total of 2 doses. In each study, there were three to five dose groups per test compound.
Eighteen hours after the last injection, the mice were euthanized by asphyxiation with CO2. The lungs were removed aseptically, homogenized in 4 mL of sterile, distilled water and dilution plated on tryptic soy agar plates to quantify bacterial CFU. The number of CFU of bacteria in lungs was determined after an incubation of 16 hours at 37° C. (the CFU per milliliter of homogenate).
The results were expressed as the geometric mean log10 CFU/mL±the standard deviation. The limit of detection was 10 CFU per mL of lung homogenate. Lungs were considered sterile when no CFU were detected on the agar. The efficacy of the test compounds was assessed by comparing the number of log10 CFU/mL measured in the infected and treated mice with control animals treated with water.
Dose response curves of test compounds were generated for each isolate. Regression lines were generated in Microsoft Excel and used to calculate the dose expected to produce a 3 log10 reduction in bacterial count as compared to water-treated group [ED−3 log 10 (mg/kg, sc, BID)].

[2] = 4.0 mg/kg BID sc, 1 and 6 h post-infection, water control 6.53

SMILES | MIC90 K. pneumonia (K. pneumonia) [micrograms/mL] | MIC Acinetobacter baumannii 1570 ([1]; Table 3B) [micrograms/mL] | MIC against A. baumannii #1570 [1] | Log10 CFU/mL lung homogenate ± SD (P. aeruginosa #44; [2]) [Log10 CFU/mL] | Log10 CFU/mL lung homogenate ± SD (P. aeruginosa #44; 8.0 mg/kg BID sc) [Log10 CFU/mL] | Log10 CFU/mL lung homogenate ± SD (P. aeruginosa #44; 12.0 mg/kg BID sc) [Log10 CFU/mL] | Log10 CFU/mL lung homogenate ± SD (P. aeruginosa #44; 16.0 mg/kg BID sc) [Log10 CFU/mL] | Log10 CFU/mL lung homogenate ± SD (P. aeruginosa #44; 20.0 mg/kg BID sc) [Log10 CFU/mL] | ED−3log10 (dose for 3 log10 reduction in bacterial count vs water) (P. aeruginosa #44)
CC(C)C[C@@H]1NC(=O)[C@@H](Cc2ccccc2)NC(=O)[C@H](CCN)NC(=O)[C@@H](NC(=O)[C@H](CCN)NC(=O)[C@@H](NC(=O)[C@H](CCN)NC(=O)Nc2ccccc2Cl)[C@@H](C)O)CCNC(=O)[C@H]([C@@H](C)O)NC(=O)[C@H](CCN)NC(=O)[C@H](CCN)NC1=O [Compound 5, (S)-4-amino-N-((2S,3R)-1-((S)-4-amino-1-oxo-1-((3S,6S,9S,12S,15R,18S,21S)-6,9,18-tris(2-aminoethyl)-15-benzyl-3-((R)-1-hydroxyethyl)-12-isobutyl-2,5,8,11,14,17,20-heptaoxo-1,4,7,10,13,16,19-heptaazacyclotricosan-21-ylamino)butan-2-ylamino)-3-hydroxy-1-oxobutan-2-yl)-2-(3-(2-chlorophenyl)ureido)butanamide] ({NH(2-ClPh)-CO}-[Dab]T[Dab][Dab][Dab][dF]L[Dab][Dab]T; lactam 4-C) | 4 | 4 | 2-4 micrograms/ml | 5.49 ± 1.27 | 4.86 ± 1.18 | 4.13 ± 1.46 | 2.56 ± 0.34 | 2.51 ± 0.70 | 9.05^b mg/kg, BID
CCC(C)CCCCC(=O)NC(CCN)C(=O)NC(C(=O)NC(CCN)C(=O)NC1CCNC(=O)C(C(C)O)NC(=O)C(CCN)NC(=O)C(CCN)NC(=O)C(CC(C)C)NC(=O)C(Cc2ccccc2)NC(=O)C(CCN)NC1=O)C(C)O (centres unmarked) [Polymyxin B, polymyxin B, reference compound] ({Octanoyl(6-Me)}-[Dab]T[Dab][Dab][Dab]FL[Dab][Dab]T; lactam 4-C; configuration not given here) | 2 |  | 1-2 micrograms/ml | 6.48 ± 1.59 | 5.73 ± 1.92 | 3.47 ± 1.16 | 2.88 ± 1.07 | 2.71 ± 1.09 | 12.97 mg/kg, BID
